According to patent publication US12157730B2, “Heteroaryl derivative, method for producing same, and pharmaceutical composition comprising same as effective component” (VORONOI INC., priority 2019, dated 2024):

target: T1, Ba/F3 cell EGFR Exon20 ins NPH (Homo sapiens, UniProt P00533, INS773NPH); assay: Ba/F3 cell proliferation suppression, EGFR Exon20 ins NPH; assay type: cell-based; conditions: GI50 class; Ba/F3 cell line with NPH inserted at Exon20 of EGFR; 72 hours
T1 construct: expressed in transfected cells; host or cells: Ba/F3
Summary of the method: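 After 72 h compound exposure (twelve 3-fold steps, 0.3 nM–50 um final), live cells were measured by CellTiter-Glo luminescence and growth expressed as % of control to derive GI50. Cells were seeded at 3000–5000 per well a day earlier; Ba/F3 medium contained IL-3; three repeats.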

Compound | Ba/F3 (NPH) Activity
C=CC(=O)Nc1cc(Nc2cc(N3OCC[C@@H]3c3cc(F)cc(F)c3)ncn2)c(OC)cc1N1CC[C@H](N2CCOCC2)C1 [Example 272, N-(5-((6-((R)-3-(3,5-difluorophenyl)isoxazolidine-2-yl)pyrimidine-4-yl)amino)-4-methoxy-2-((S)-3-morpholinopyrolidine-1-yl)phenyl)acrylamide] | B (50 nM ≤ GI50 < 500 nM)
C=CC(=O)Nc1cc(Nc2cc(N3OCC[C@@H]3c3cccc(F)c3Cl)ncn2)c(OC)cc1N1CCC(N2CCN(C3CC3)C[C@@H]2C)CC1 [Example 144, N-(5-((6-((R)-3-(2-chloro-3-fluorophenyl)isoxazolidine-2-yl)pyrimidine-4-yl)amino)-2-(4-((S)-4-cyclopropyl-2-methylpiperazine-1-yl)piperidine-1-yl)-4-methoxyphenyl) acrylamide] | A (GI50 < 50 nM)
C=CC(=O)Nc1cc(Nc2cc(N3OCC[C@@H]3Cc3cccc(F)c3)ncn2)c(OC)cc1N1CCC(N2C[C@H]3CC[C@@H](C2)N3C2CC2)CC1 [compound 995, N-(2-(4-((1R,5S)-8-cyclopropyl-3,8-diazabicyclo [3.2.1]octan-3-yl)piperidine-1-yl)-5-((6-((S)-3-(3-fluorobenzyl)isoxazolidine-2-yl)pyrimidine-4-yl)amino)-4-methoxyphenyl) acrylamide] | A (GI50 < 50 nM)
C=CC(=O)Nc1cc(Nc2cc(N3OCC[C@@H]3Cc3cccc(F)c3C)ncn2)c(OC)cc1N1CCC(N2CCN(C3CC3)CC2)CC1 [compound 999, N-(2-(4-(4-cyclopropylpiperazine-1-yl)piperidine-1-yl)-5-((6-((S)-3-(3-fluoro-2-methylbenzyl)isoxazolidine-2-yl)pyrimidine-4-yl)amino)-4-methoxyphenyl) acrylamide] | A (GI50 < 50 nM)
C=CC(=O)Nc1cc(Nc2cc(N3OCC[C@@H]3Cc3cc(F)cc(F)c3)ncn2)c(OC)cc1N(C)CCN(C)C [compound 1031, N-(5-((6-((S)-3-(3,5-difluorobenzyl)isoxazolidine-2-yl)pyrimidine-4-yl)amino)-2-((2-(dimethylamino)ethyl)(methyl)amino)-4-methoxyphenyl) acrylamide] | A (GI50 < 50 nM)
C=CC(=O)Nc1cc(Nc2cc(N3OCC[C@]3(C)c3ccccc3)ncn2)c(OC)cc1N1CCC(N2C[C@H]3C[C@@H]2CO3)CC1 [Example 270, N-(2-(4-((1R,4R)-2-oxa-5-azabicyclo[2.2.1]heptane-5-yl)piperidine-1-yl)-4-methoxy-5-((6-((R)-3-methyl-3-phenylisoxazolidine-2-yl)pyrimidine-4-yl)amino)phenyl) acrylamide] | B (50 nM ≤ GI50 < 500 nM)
C=CC(=O)Nc1cc(Nc2cc(N3OCC[C@@H]3c3cc(F)cc(F)c3)ncn2)c(OC)cc1N1CCC(N2CCN(C3CC3)C[C@H]2C)CC1 [Example 112, N-(2-(4-((R)-4-cyclopropyl-2-methylpiperazine-1-yl)piperidine-1-yl)-5-((6-((R)-3-(3,5-difluorophenyl)isoxazolidine-2-yl)pyrimidine-4-yl)amino)-4-methoxyphenyl) acrylamide] | A (GI50 < 50 nM)
C=CC(=O)Nc1cc(Nc2cc(N3OCC[C@@H]3c3cccc(Cl)c3Cl)ncn2)c(OC)cc1N1CCC(N2CC[C@@H](N(C)C)C2)CC1 [compound 610, N-(5-((6-((R)-3-(2,3-dichlorophenyl)isoxazolidine-2-yl)pyrimidine-4-yl)amino)-2-(4-((R)-3-(dimethylamino)pyrolidine-1-yl)piperidine-1-yl)-4-methoxyphenyl) acrylamide] | B (50 nM ≤ GI50 < 500 nM)
C=CC(=O)Nc1cc(Nc2cc(N3OCC[C@@H]3c3ccc(F)cc3F)ncn2)c(OC)cc1N1CCC(N2CCN(C(C)C)CC2)CC1 [compound 428, N-(5-((6-((R)-3-(2,4-difluorophenyl)isoxazolidine-2-yl)pyrimidine-4-yl)amino)-2-(4-(4-isopropylpiperazine-1-yl)piperidine-1-yl)-4-methoxyphenyl) acrylamide] | A (GI50 < 50 nM)
C=CC(=O)Nc1cc(Nc2cc(N3OCC[C@H]3Cc3ccccc3)ncn2)c(OC)cc1N1CCN(C)CC1 [compound 968, N-(5-((6-((R)-3-benzylisoxazolidine-2-yl)pyrimidine-4-yl)amino)-4-methoxy-2-(4-methylpiperazine-1-yl)phenyl)acrylamide] | C (500 nM ≤ GI50 < 5000 nM)
C=CC(=O)Nc1cc(Nc2cc(N3OCC[C@@H]3c3ccc(Cl)cc3F)ncn2)c(OC)cc1N1CCC(N2CCC(N(C)C)CC2)CC1 [compound 410, N-(5-((6-((R)-3-(4-chloro-2-fluorophenyl)isoxazolidine-2-yl)pyrimidine-4-yl)amino)-2-(4-(dimethylamino)-[1,4'-bipiperidine]-1'-yl)-4-methoxyphenyl) acrylamide] | B (50 nM ≤ GI50 < 500 nM)

Continued, values first:

Ba/F3 (NPH) Activity | Compound
A (GI50 < 50 nM) | C=CC(=O)Nc1cc(Nc2cc(N3OCC[C@@H]3c3ccc(F)c(Cl)c3)ncn2)c(OC)cc1N1C[C@@H]2C[C@H]1CO2 [compound 902, N-(2-((1S,4S)-2-oxa-5-azabicyclo [2.2.1]heptane-5-yl)-5-((6-((R)-3-(3-chloro-4-fluorophenyl)isoxazolidine-2-yl)pyrimidine-4-yl)amino)-4-methoxyphenyl) acrylamide]
A (GI50 < 50 nM) | C=CC(=O)Nc1cc(Nc2cc(N3OCC[C@@H]3c3cc(F)cc(Cl)c3)ncn2)c(OC)cc1N1CCN(C2COC2)CC1 [compound 597, N-(5-((6-((R)-3-(3-chloro-5-fluorophenyl)isoxazolidine-2-yl)pyrimidine-4-yl)amino)-4-methoxy-2-(4-(oxetane-3-yl)piperazine-1-yl)phenyl) acrylamide]
A (GI50 < 50 nM) | C=CC(=O)Nc1cc(Nc2cc(N3OCC[C@@H]3c3cc(F)cc(Cl)c3)ncn2)c(OC)cc1N1CCC(N2CCO[C@H](C)C2)CC1 [compound 596, N-(5-((6-((R)-3-(3-chloro-5-fluorophenyl)isoxazolidine-2-yl)pyrimidine-4-yl)amino)-4-methoxy-2-(4-((R)-2-methylmorpholino)piperidine-1-yl)phenyl)acrylamide]
A (GI50 < 50 nM) | C=CC(=O)Nc1cc(Nc2cc(N3OCC[C@@H]3c3ccc(Cl)c(Cl)c3)ncn2)c(OC)cc1N1CCN(C)CC1 [compound 670, N-(5-((6-((R)-3-(3,4-dichlorophenyl)isoxazolidine-2-yl)pyrimidine-4-yl)amino)-4-methoxy-2-(4-methylpiperazine-1-yl)phenyl)acrylamide]
A (GI50 < 50 nM) | C=CC(=O)Nc1cc(Nc2cc(N3OCC[C@@H]3c3ccc(Cl)c(Cl)c3)ncn2)c(OC)cc1N1CCC(N2CCN(C)CC2)CC1 [compound 681]
A (GI50 < 50 nM) | C=CC(=O)Nc1cc(Nc2cc(N3OCC[C@@H]3c3cccc(F)c3)ncn2)c(OC)cc1N1CCC(N2C[C@H]3C[C@@H]2CO3)CC1 [Example 243, N-(2-(4-((1R,4R)-2-oxa-5-azabicyclo[2.2.1]heptane-5-yl)piperidine-1-yl)-5-((6-((R)-3-(3-fluorophenyl)isoxazolidine-2-yl)pyrimidine-4-yl)amino)-4-methoxyphenyl) acrylamide]
